Tests used:
[1] = 12-hour 3-O-methyldopa plasma pharmacokinetics; type: in vivo, human (patients with PD); details: for 3-O-methyldopa Cmax,max, Geometric Mean (90% CI): N 12; for 3-O-methyldopa tmax: median; for 3-O-methyldopa Cmax,max: mean (%CV)
Experimental: Following screening, all patients received a daily LD/CD dose of 500/125 mg for 2 weeks, administered as LD/CD 100/25 mg five times a day (five‐intake LD/CD 500/125 mg), fixed every 3 hours (from 8 AM to 8 PM) at pharmacokinetic day. Patients were then randomly assigned (1:1) to receive two different regimens of opicapone 50 mg plus LD/CD (400/100 mg daily) for an additional 2 weeks. • Patients on opicapone regimen 1 received LD/CD 100/25 mg four times a day plus opicapone 50 mg at least 1 hour after the last administration of LD/CD each day (four‐intake LD/CD 400/100 mg plus opicapone 50 mg), fixed every 4 hours (from 8 AM to 8 PM) at pharmacokinetic day. • Patients on opicapone regimen 2 received alternating LD/CD 100/25 mg and 50/12.5 mg doses (ie, 100/25 mg, 50/12.5 mg, 100/25 mg, 50/12.5 mg, and 100/25 mg) five times a day plus opicapone 50 mg at least 1 hour after the last administration of LD/CD each day (five‐intake LD/CD 400/100 mg plus opicapone 50 mg), fixed every 3 hours (from 8 AM to 8 PM) at pharmacokinetic day.
The primary objective of the study was to evaluate the pharmacokinetics of LD in the two opicapone LD/CD 400/100 mg dosing regimens (four and five intakes) when compared with the five‐intake LD/CD 500/125 mg regimen without opicapone. The pharmacokinetics study endpoint was set after 2 weeks of each treatment regimen (ie, at the end of the initial five‐intake LD/CD 500/125 mg treatment regimen and at the end of the LD/CD 400/100 mg plus opicapone treatment). Pharmacokinetic evaluation occurred over 12 hours with sampling every 30 minutes, except for the last sample following each LD dose in the opicapone plus four LD intake regimen, which was sampled at 1 hour. The main pharmacokinetics parameters assessed included maximum observed plasma concentration (Cmax), time to achieve peak plasma levels (tmax), minimum observed plasma concentration (Cmin), plasma elimination half‐life (t1/2), area under the curve (AUC), and fluctuation index (FI; as an expression of peak‐to‐trough fluctuation, Cmax, and Cmin, relative to average concentration [Cavg]). The pharmacokinetics of the LD metabolite 3‐O‐methyldopa (3‐OMD) was also evaluated.
Descriptive statistics were used to summarize the pharmacokinetics parameters for LD and 3‐OMD for each of the three regimens. […] No formal comparison was performed between opicapone regimens. Pharmacokinetic parameters were evaluated within the same population for each LD/CD 400/100 mg plus opicapone treatment regimen compared with the LD/CD 500/125 mg without opicapone regimen. Geometric mean ratios and corresponding 90% confidence intervals (CIs) for the LD and 3‐OMD log‐transformed pharmacokinetics parameters (AUCtotal, Cmax,max and Cmin,min [only for LD]) were calculated using a paired t test for the comparison between the five‐intake LD/CD 500/125 mg treatment without opicapone and each of the two LD/CD 400/100 mg plus opicapone regimens; only data from completers (patients with data for both regimens) were used for this analysis.

[2] = test system: patients with PD and end-of-dose motor fluctuations; experiment: 12-hour patient on/off monitoring on pharmacokinetics days; type: in vivo, human (patients with PD); details: for OFF-time / ON-time / ON-time With Dyskinesia / ON-time Without Dyskinesia / Time to Best-ON / Time to ON: mean; for 12-hour OFF-time / 12-hour ON-time / 12-hour ON-time With Dyskinesia / 12-hour ON-time Without Dyskinesia / 12-hour Time to Best-ON / 12-hour Time to ON: mean (SD)
Experimental: Clinical and safety/tolerability outcomes were also assessed as exploratory secondary outcomes. Clinical outcomes included on and off time assessed using patient‐rated tools. The timing of on and off states was registered (in real time) by the investigators during the matching 12‐hour pharmacokinetic evaluation (as such applied on pharmacokinetics days only), and patients also completed 24‐hour patient Hauser on/off diary charts[21] (in 30‐minute blocks) during the 3 days before each pharmacokinetic visit. Diary states of interest were off time and on time, including on without dyskinesia, on with nontroublesome dyskinesia, and on with troublesome dyskinesia. In addition, the Patient Global Impression of Change (PGI‐C) of opicapone 50 mg was evaluated at the end of the LD/CD 400/100 mg plus opicapone treatment compared with before the start of opicapone treatment.[22] Safety and tolerability endpoints included treatment‐emergent adverse events (TEAEs), serious TEAEs, and TEAEs leading to discontinuation.
Clinical outcomes are also presented descriptively. A paired t test was used for the comparison of 12‐hour off and on time, 24‐hour off and on time, time to on, and time to best on between each opicapone‐containing regimen and the regimen without opicapone. Estimates of mean difference and corresponding 90% CIs were reported for all main variables.

[3] = 5-intake LD/CD 500/125mg vs 4-intake LD/CD 400/100mg plus OPC 50mg, 1st LD/CD intake, mean
[4] = 5-intake LD/CD 500/125mg vs 4-intake LD/CD 400/100mg plus OPC 50mg, 1st LD/CD intake
[5] = 5-intake LD/CD 500/125mg vs 4-intake LD/CD 400/100mg plus OPC 50mg, 2nd LD/CD intake, mean
[6] = 5-intake LD/CD 500/125mg vs 4-intake LD/CD 400/100mg plus OPC 50mg, 2nd LD/CD intake
[7] = 5-intake LD/CD 500/125mg vs 4-intake LD/CD 400/100mg plus OPC 50mg, 3rd LD/CD intake, mean
[8] = 5-intake LD/CD 500/125mg vs 4-intake LD/CD 400/100mg plus OPC 50mg, 3rd LD/CD intake
[9] = 5-intake LD/CD 500/125mg vs 4-intake LD/CD 400/100mg plus OPC 50mg, 4th LD/CD intake, mean
[10] = 5-intake LD/CD 500/125mg vs 4-intake LD/CD 400/100mg plus OPC 50mg, 4th LD/CD intake
[11] = 5-intake LD/CD 500/125mg vs 4-intake LD/CD 400/100mg plus OPC 50mg
[12] = 5-intake LD/CD 500/125mg vs 5-intake LD/CD 400/100mg plus OPC 50mg, 1st LD/CD intake, mean
[13] = 5-intake LD/CD 500/125mg vs 5-intake LD/CD 400/100mg plus OPC 50mg, 1st LD/CD intake
[14] = 5-intake LD/CD 500/125mg vs 5-intake LD/CD 400/100mg plus OPC 50mg, 2nd LD/CD intake, mean
[15] = 5-intake LD/CD 500/125mg vs 5-intake LD/CD 400/100mg plus OPC 50mg, 2nd LD/CD intake
[16] = 5-intake LD/CD 500/125mg vs 5-intake LD/CD 400/100mg plus OPC 50mg, 3rd LD/CD intake, mean
[17] = 5-intake LD/CD 500/125mg vs 5-intake LD/CD 400/100mg plus OPC 50mg, 3rd LD/CD intake
[18] = 5-intake LD/CD 500/125mg vs 5-intake LD/CD 400/100mg plus OPC 50mg, 4th LD/CD intake, mean
[19] = 5-intake LD/CD 500/125mg vs 5-intake LD/CD 400/100mg plus OPC 50mg, 4th LD/CD intake
[20] = 5-intake LD/CD 500/125mg vs 5-intake LD/CD 400/100mg plus OPC 50mg
[21] = five-intake levodopa/carbidopa 500/125 mg vs five-intake levodopa/carbidopa 400/100 mg plus opicapone 50 mg, N 9
[22] = five-intake levodopa/carbidopa 500/125 mg vs four-intake levodopa/carbidopa 400/100 mg plus opicapone 50 mg, N 10
[23] = five-intake levodopa/carbidopa 500/125 mg vs four-intake levodopa/carbidopa 400/100 mg plus opicapone 50 mg, N 12

levodopa/carbidopa [LD/CD]
3-O-methyldopa Cmax,max, Geometric Mean (90% CI) ([1]; 5-intake LD/CD 500/125mg vs 4-intake LD/CD 400/100mg +OPC 50mg): 4264 (3631, 5006) ng/mL
3-O-methyldopa AUCτ [1, 3]: 10068^a h*ng/mL
3-O-methyldopa Cmax [1, 3]: 3453 ng/mL
3-O-methyldopa Cmin [1, 3]: 3021 ng/mL
3-O-methyldopa tmax [1, 4]: 1.75 h
3-O-methyldopa Cmax [1, 5]: 3619 ng/mL
3-O-methyldopa Cmin [1, 5]: 3077 ng/mL
3-O-methyldopa tmax [1, 6]: 2.5 h
3-O-methyldopa AUCτ [1, 7]: 14278^b h*ng/mL
3-O-methyldopa Cmax [1, 7]: 4011 ng/mL
3-O-methyldopa Cmin [1, 7]: 3437 ng/mL
3-O-methyldopa tmax [1, 8]: 2.71 h
3-O-methyldopa AUCτ ([1]; 5-intake LD/CD 500/125mg vs 4-intake LD/CD 400/100mg plus OPC 50mg, 4th LD/CD intake, 1 patient): 13519^c h*ng/mL
3-O-methyldopa Cmax [1, 9]: 4435 ng/mL
3-O-methyldopa Cmin [1, 9]: 3766 ng/mL
3-O-methyldopa tmax [1, 10]: 2.5 h
3-O-methyldopa Cmax,max [1, 11]: 4447 (29.2) ng/mL
3-O-methyldopa Cmax,max, Geometric Mean (90% CI) ([1]; 5-intake LD/CD 500/125mg vs 5-intake LD/CD 400/100mg +OPC 50mg): 4201 (3733, 4727) ng/mL
3-O-methyldopa AUCτ [1, 12]: 8991^g h*ng/mL
3-O-methyldopa Cmax [1, 12]: 3191 ng/mL
3-O-methyldopa Cmin [1, 12]: 2868 ng/mL
3-O-methyldopa tmax [1, 13]: 1.5 h
3-O-methyldopa AUCτ [1, 14]: 9002^d h*ng/mL
3-O-methyldopa Cmax [1, 14]: 3406 ng/mL
3-O-methyldopa Cmin [1, 14]: 2907 ng/mL
3-O-methyldopa tmax [1, 15]: 2.5 h
3-O-methyldopa AUCτ ([1]; 5-intake LD/CD 500/125mg vs 5-intake LD/CD 400/100mg plus OPC 50mg, 3rd LD/CD intake, 1 patient): 11951^c h*ng/mL
3-O-methyldopa Cmax [1, 16]: 3875 ng/mL
3-O-methyldopa Cmin [1, 16]: 3151 ng/mL
3-O-methyldopa tmax [1, 17]: 2.5 h
3-O-methyldopa Cmax [1, 18]: 4170 ng/mL
3-O-methyldopa Cmin [1, 18]: 3586 ng/mL
3-O-methyldopa tmax [1, 19]: 2.71 h
3-O-methyldopa Cmax,max [1, 20]: 4300 (22.4) ng/mL
OFF-time [2, 4]: 79.8 min
ON-time [2, 4]: 100.3 min
ON-time With Dyskinesia [2, 4]: 45.0 min
ON-time Without Dyskinesia [2, 4]: 92.8 min
Time to Best-ON [2, 4]: 55.0 min
Time to ON [2, 4]: 38.9 min
OFF-time [2, 6]: 106.9 min
ON-time [2, 6]: 73.1 min
ON-time With Dyskinesia [2, 6]: 23.3 min
ON-time Without Dyskinesia [2, 6]: 67.3 min
Time to Best-ON [2, 6]: 58.8 min
Time to ON [2, 6]: 50.0 min
OFF-time [2, 8]: 89.5 min
ON-time [2, 8]: 90.5 min
ON-time With Dyskinesia [2, 8]: 23.8 min
ON-time Without Dyskinesia [2, 8]: 81.8 min
Time to Best-ON [2, 8]: 62.0 min
Time to ON [2, 8]: 40.5 min
OFF-time [2, 10]: 84.6 min
ON-time [2, 10]: 91.3 min
ON-time With Dyskinesia [2, 10]: 22.5 min
ON-time Without Dyskinesia [2, 10]: 87.5 min
Time to Best-ON [2, 10]: 57.9 min
Time to ON [2, 10]: 42.1 min
12-hour OFF-time [2, 11]: 353.3 (80.46) min
12-hour ON-time [2, 11]: 347.5 (92.53) min
12-hour ON-time With Dyskinesia [2, 11]: 60.0 (45.14) min
12-hour ON-time Without Dyskinesia [2, 11]: 322.5 (106.27) min
12-hour Time to Best-ON [2, 11]: 59.22 (14.92) min
12-hour Time to ON [2, 11]: 46.14 (12.38) min
OFF-time [2, 13]: 88.5 min
ON-time [2, 13]: 91.5 min
ON-time With Dyskinesia [2, 13]: 33.8 min
ON-time Without Dyskinesia [2, 13]: 79.2 min
Time to Best-ON [2, 13]: 62.7 min
Time to ON [2, 13]: 41.5 min
OFF-time [2, 15]: 103.0 min
ON-time [2, 15]: 77.0 min
ON-time With Dyskinesia [2, 15]: 27.5 min
ON-time Without Dyskinesia [2, 15]: 71.5 min
Time to Best-ON [2, 15]: 51.7 min
Time to ON [2, 15]: 36.0 min
OFF-time [2, 17]: 86.5 min
ON-time [2, 17]: 93.5 min
ON-time With Dyskinesia [2, 17]: 31.7 min
ON-time Without Dyskinesia [2, 17]: 74.5 min
Time to Best-ON [2, 17]: 50.0 min
Time to ON [2, 17]: 44.5 min
OFF-time [2, 19]: 96.0 min
ON-time [2, 19]: 81.0 min
ON-time With Dyskinesia [2, 19]: 27.5 min
ON-time Without Dyskinesia [2, 19]: 75.5 min
Time to Best-ON [2, 19]: 57.5 min
Time to ON [2, 19]: 52.5 min
12-hour OFF-time [2, 20]: 348.1 (103.9) min
12-hour ON-time [2, 20]: 320.1 (83.80) min
12-hour ON-time With Dyskinesia [2, 20]: 72.5 (24.24) min
12-hour ON-time Without Dyskinesia [2, 20]: 280.5 (71.44) min
12-hour Time to Best-ON [2, 20]: 55.46 (14.86) min
12-hour Time to ON [2, 20]: 43.13 (11.32) min
12-h off time, geometric mean (90% CI) [2, 21]: 376.9 (349.9, 406.0) min
12-h on time, geometric mean (90% CI) [2, 21]: 333.1 (298.8, 371.2) min
12-h time to on, geometric mean (90% CI) ([2]; five-intake levodopa/carbidopa 500/125 mg vs five-intake levodopa/carbidopa 400/100 mg plus opicapone 50 mg, N 10): 41.84 (36.03, 48.59) min
12-h time to best on, geometric mean (90% CI) ([2]; five-intake levodopa/carbidopa 500/125 mg vs five-intake levodopa/carbidopa 400/100 mg plus opicapone 50 mg, N 12): 53.97 (47.84, 60.89) min
12-h off time, geometric mean (90% CI) [2, 22]: 356.4 (313.2, 405.5) min
12-h on time, geometric mean (90% CI) [2, 22]: 340.3 (292.0, 396.7) min
12-h time to best on, geometric mean (90% CI) [2, 23]: 57.62 (50.84, 65.31) min
12-h time to on, geometric mean (90% CI) [2, 23]: 44.62 (38.75, 51.39) min

— paper PMC9804871, “Effect of Opicapone on Levodopa Pharmacokinetics in Patients with Fluctuating Parkinson's Disease” (Movement Disorders, 2022)
